row,Compound,melting point
1,Cc1ccc(/C=C/c2nc(COc3ccc(CCCCn4ccnn4)cc3)co2)cc1 [Example 1],154 to 155 °C
2,"Fc1ccc(/C=C/c2nc(COc3ccc(CCCCn4ccnn4)cc3)co2)cc1 [Example 2, 1-{4-[4-({2-[(E)-2-(4-fluorophenyl)ethenyl]-1,3-oxazol-4-yl}methoxy)phenyl]butyl}-1H-1,2,3-triazole]",124 to 125 °C
3,"Fc1ccc(/C=C/c2nc(COc3cccc(CCCn4ccnn4)c3)co2)cc1 [Example 3, 1-{3-[3-({2-[(E)-2-(4-fluorophenyl)ethenyl]-1,3-oxazol-4-yl}methoxy)phenyl]propyl}-1H-1,2,3-triazole]",105 to 106 °C
4,"FC(F)(F)c1ccc(/C=C/c2nc(COc3ccc(CCCn4ccnn4)cc3)co2)cc1 [Example 5, 1-(3-{4-[(2-((E)-2-[4-(trifluoromethyl)phenyl]ethenyl)-1,3-oxazol-4-yl)methoxy]phenyl}propyl)-1H-1,2,3-triazole]",157 to 158 °C
5,"FC(F)(F)c1ccc(/C=C/c2nc(COc3cccc(CCCn4ccnn4)c3)co2)cc1 [Example 6, 1-(3-{3-[(2-((E)-2-[4-(trifluoromethyl)phenyl]ethenyl}-1,3-oxazol-4-yl)methoxy]phenyl}propyl)-1H-1,2,3-triazole]",115 to 116 °C
6,"Fc1ccc(/C=C/c2nc(COc3ccc(CCCCn4ccnn4)cc3)co2)c(F)c1 [Example 7, 1-{4-[4-({2-[(E)-2-(2,4-difluorophenyl)ethenyl]-1,3-oxazol-4-yl}methoxy)phenyl]butyl}-1H-1,2,3-triazole]",115 to 117 °C
7,"Fc1ccc(/C=C/c2nc(COc3cccc(CCCn4ccnn4)c3)co2)c(F)c1 [Example 8, 1-{3-[3-({2-[(E)-2-(2,4-difluorophenyl)ethenyl]-1,3-oxazol-4-yl}methoxy)phenyl]propyl}-1H-1,2,3-triazole]",89 to 90 °C
8,"Cc1ccc(/C=C/c2nc(COc3ccc(CCCCn4ccnc4CCO)cc3)co2)cc1 [Example 10, 2-[1-[4-[4-[[2-[(E)-2-(4-methylphenyl)ethenyl]-1,3-oxazol-4-yl]methoxy]phenyl]butyl]-1H-imidazol-2-yl]-1-ethanol]",108 to 109 °C
9,"Cc1cccc(/C=C/c2nc(COc3ccc(CCCCn4ccnc4CCO)cc3)co2)c1 [Example 11, 2-[1-[4-[4-[[2-[(E)-2-(3-methylphenyl)ethenyl]-1,3-oxazol-4-yl]methoxy]phenyl]butyl]-1H-imidazol-2-yl]-1-ethanol]",109 to 111 °C
10,"Cc1ccccc1/C=C/c1nc(COc2ccc(CCCCn3ccnc3CCO)cc2)co1 [Example 12, 2-[1-[4-[4-[[2-[(E)-2-(2-methylphenyl)ethenyl]-1,3-oxazol-4-yl]methoxy]phenyl]butyl]-1H-imidazol-2-yl]-1-ethanol]",91 to 93 °C
11,"CCc1ccc(/C=C/c2nc(COc3ccc(CCCCn4ccnc4CCO)cc3)co2)cc1 [Example 13, 2-[1-[4-[4-[[2-[(E)-2-(4-ethylphenyl)ethenyl]-1,3-oxazol-4-yl]methoxy]phenyl]butyl]-1H-imidazol-2-yl]-1-ethanol]",94 to 95 °C
12,"OCCc1nccn1CCCCc1ccc(OCc2coc(/C=C/c3ccc(F)cc3)n2)cc1 [Example 14, 2-(1-(4-[4-({2-[(E)-2-(4-fluorophenyl)ethenyl]-1,3-oxazol-4-yl}methoxy)phenyl]butyl)-1H-imidazol-2-yl)-1-ethanol]",130 to 132 °C
13,"OCCc1nccn1CCCCc1ccc(OCc2coc(/C=C/c3ccc(Cl)cc3)n2)cc1 [Example 15, 2-[1-[4-[4-[[2-[(E)-2-(4-chlorophenyl)ethenyl]-1,3-oxazol-4-yl]methoxy]phenyl]butyl]-1H-imidazol-2-yl]-1-ethanol]",127 to 128 °C
14,"OCCc1nccn1CCCCc1ccc(OCc2coc(/C=C/c3ccc(Br)cc3)n2)cc1 [Example 16, 2-[1-[4-[4-[[2-[(E)-2-(4-bromophenyl)ethenyl]-1,3-oxazol-4-yl]methoxy]phenyl]butyl]-1H-imidazol-2-yl]-1-ethanol]",149 to 150 °C
15,"OCCc1nccn1CCCCc1ccc(OCc2coc(/C=C/c3ccc(F)cc3F)n2)cc1 [Example 19, 2-[1-[4-[4-[[2-[(E)-2-(2,4-difluorophenyl)ethenyl]-1,3-oxazol-4-yl]methoxy]phenyl]butyl]-1H-imidazol-2-yl]-1-ethanol]",93 to 95 °C
16,"OCCc1nccn1CCCc1ccc(OCc2coc(/C=C/c3ccc(F)cc3F)n2)cc1 [Example 20, 2-[1-[3-[4-[[2-[(E)-2-(2,4-difluorophenyl)ethenyl]-1,3-oxazol-4-yl]methoxy]phenyl]propyl]-1H-imidazol-2-yl]-1-ethanol]",94 to 96 °C
17,OCCc1nccn1CCCCc1ccc(OCc2coc(/C=C/c3c(F)cccc3F)n2)cc1 [Example 21],106 to 107 °C
18,"Cc1cccc(/C=C/c2nc(COc3ccc(CCCCn4ccnc4CC(O)CO)cc3)co2)c1 (stereo not shown) [Example 22, 3-(1-{4-[4-({2-[(E)-2-(3-methylphenyl)ethenyl]-1,3-oxazol-4-yl}methoxy)phenyl]butyl}-1H-imidazol-2-yl)-1,2-propanediol]",102 to 104 °C
19,"OCC(O)Cc1nccn1CCCCc1ccc(OCc2coc(/C=C/c3ccc(F)cc3)n2)cc1 (stereo not shown) [Example 23, 3-(1-{4-[4-({2-[(E)-2-(4-fluorophenyl)ethenyl]-1,3-oxazol-4-yl}methoxy)phenyl]butyl}-1H-imidazol-2-yl)-1,2-propanediol]",114 to 116 °C
20,"OCC(O)Cc1nccn1CCCCc1ccc(OCc2coc(/C=C/c3ccc(C(F)(F)F)cc3)n2)cc1 (stereo not shown) [Example 24, 3-[1-(4-(4-[(2-{(E)-2-[4-(trifluoromethyl)phenyl]ethenyl}-1,3-oxazol-4-yl)methoxy]phenyl}butyl)-1H-imidazol-2-yl]-1,2-propanediol]",142 to 143 °C
21,"OCC(O)Cc1nccn1CCCc1cccc(OCc2coc(/C=C/c3ccc(C(F)(F)F)cc3)n2)c1 (stereo not shown) [Example 25, 3-[1-(3-{3-[(2-{(E)-2-[4-(trifluoromethyl)phenyl]ethenyl}-1,3-oxazol-4-yl)methoxy]phenyl}propyl)-1H-imidazol-2-yl]-1,2-propanediol]",102 to 104 °C
22,"OCC(O)Cc1nccn1CCCCc1ccc(OCc2coc(/C=C/c3ccc(F)cc3F)n2)cc1 (stereo not shown) [Example 26, 3-(1-{4-[4-({2-[(E)-2-(2,4-difluorophenyl)ethenyl]-1,3-oxazol-4-yl]methoxy)phenyl]butyl}-1H-imidazol-2-yl)-1,2-propanediol]",126 to 128 °C
23,"OCC(O)Cc1nccn1CCCCc1ccc(OCc2coc(/C=C/c3c(F)cccc3F)n2)cc1 (stereo not shown) [Example 28, 3-[1-[4-[4-[[2-[(E)-2-(2,6-difluorophenyl)ethenyl]-1,3-oxazol-4-yl]methoxy]phenyl]butyl]-1H-imidazol-2-yl]-1,2-propanediol]",123 to 125 °C
24,OC[C@H](O)Cc1nccn1CCCCc1ccc(OCc2coc(/C=C/c3ccc(F)cc3F)n2)cc1 [Example 29],104 to 106 °C
25,OC[C@@H](O)Cc1nccn1CCCCc1ccc(OCc2coc(/C=C/c3ccc(F)cc3F)n2)cc1 [Example 30],106 to 108 °C

# From patent US6716863B2, “Heterocyclic compounds their production and use” (Takeda Chemical Industries, Ltd., priority 2000, dated 2004)
